# Columns and labels:
# [1] = tested on: women with endometriosis; test: Bone mineral density (BMD) of the lumbar spine by DEXA, ratio of 6 month to baseline; format: in vivo; conditions: deslorelin alone, another study
# Experimental: Women with endometriosis treated with intranasal deslorelin (a GnRH compound) were assigned to one of three methods of estradiol add-back: (1) 50 μg/day estradiol transdermal patch, (2) 300 μg/day intranasal estradiol, or (3) 300 μg/day intranasal estradiol with 275 μg/day intranasal testosterone. Loss of bone mineral density (BMD) is a known side effect of treatment with GnRH compounds. Thus, BMD of the lumbar spine (L1–L4) of the test subjects in Example 4 was obtained bydual-energy X-ray absorptiometry (DEXA) prior to and after six months of treatment. The results are shown in Table 4 as the ratio of BMD at the six month time point (BMD6mo.) to the BMD prior to treatment (BMDbaseline).
# Women with endometriosis treated with intranasal deslorelin (GnRH compound) were assigned to one of three methods of add-back: (1) 50 μg/day estradiol transdermal patch, (2) 300 μg/day intranasal estradiol, or (3) 300 μg/day intranasal estradiol with 275 μg/day intranasal testosterone. Bone mineral density (BMD) of the lumbar spine was obtained by dual-energy X-ray absorptiometry (DEXA) prior to and after six months of drug treatment. BMD changes are shown in Table 4 as the ratio of the 6 month value compared to the baseline value.
# [2] = cited from earlier work
compound,measurement,setting,value
"CCNC(=O)[C@@H]1CCCN1C(=O)[C@H](CCCN=C(N)N)NC(=O)[C@H](CC(C)C)NC(=O)[C@@H](Cc1c[nH]c2ccccc12)NC(=O)[C@H](Cc1ccc(O)cc1)NC(=O)[C@H](CO)NC(=O)[C@H](Cc1c[nH]c2ccccc12)NC(=O)[C@H](Cc1cnc[nH]1)NC(=O)[C@@H]1CCC(=O)N1 [Deslorelin (D), deslorelin]","Ratio of 6 Month BMD to Baseline BMD, Mean",[1],0.971
OC[C@H]1O[C@@H]2O[C@H]3[C@H](O)[C@@H](O)[C@@H](O[C@H]4[C@H](O)[C@@H](O)[C@@H](O[C@H]5[C@H](O)[C@@H](O)[C@@H](O[C@H]6[C@H](O)[C@@H](O)[C@@H](O[C@H]7[C@H](O)[C@@H](O)[C@@H](O[C@H]8[C@H](O)[C@@H](O)[C@@H](O[C@H]9[C@H](O)[C@@H](O)[C@@H](O[C@H]%10[C@H](O)[C@@H](O)[C@@H](O[C@H]1[C@H](O)[C@H]2O)O[C@@H]%10CO)O[C@@H]9CO)O[C@@H]8CO)O[C@@H]7CO)O[C@@H]6CO)O[C@@H]5CO)O[C@@H]4CO)O[C@@H]3CO [δ-cyclodextrin],"water solubility (at 25° C., g/100 mL)",[2],8.19 g/100 mL
